According to patent publication US5272175A, “Substituted tyrosyl diamide compounds” (priority 1992, dated 1993):
Where a name gives a salt, the structure may show the parent alone. Read-outs that look alike come from different tables or passages of the source.

Columns and labels:
μ opioid receptors = μ opioid receptors (Rattus norvegicus, UniProt P33535); experiment: Opiate Binding Assay, displacement of 3[H]-DAMPGO from μ receptors
δ opioid receptors = δ opioid receptors (Rattus norvegicus, UniProt P33533); experiment: Opiate Binding Assay, displacement of 3[H]-DSLET from δ receptors; settings: for Mean IC50 μ/δ Ratio: ratio of mean IC50 values for μ and δ, above 1.0 = more δ specific
δ opioid receptors, sequence (P33533 whole entry): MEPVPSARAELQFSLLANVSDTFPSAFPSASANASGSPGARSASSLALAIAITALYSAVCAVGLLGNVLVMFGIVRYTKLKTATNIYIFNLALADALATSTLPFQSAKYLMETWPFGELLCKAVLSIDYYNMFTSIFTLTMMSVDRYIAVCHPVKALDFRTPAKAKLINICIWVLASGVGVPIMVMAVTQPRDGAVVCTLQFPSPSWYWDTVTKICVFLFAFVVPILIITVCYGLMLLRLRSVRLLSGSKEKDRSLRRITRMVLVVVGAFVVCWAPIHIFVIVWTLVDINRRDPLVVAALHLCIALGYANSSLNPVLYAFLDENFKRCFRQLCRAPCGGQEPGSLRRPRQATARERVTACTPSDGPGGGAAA

[1] = read-out: Mean IC50 Value, μ, rat forebrain membranes, 3[H]-DAMPGO 2.0 nM, 37° C., pH 7.4
[2] = read-out: Mean IC50 Value, δ, rat forebrain membranes, 3[H]-DSLET 1.0 nM, 37° C., pH 7.4

μ opioid receptors, sequence (P33535 whole entry): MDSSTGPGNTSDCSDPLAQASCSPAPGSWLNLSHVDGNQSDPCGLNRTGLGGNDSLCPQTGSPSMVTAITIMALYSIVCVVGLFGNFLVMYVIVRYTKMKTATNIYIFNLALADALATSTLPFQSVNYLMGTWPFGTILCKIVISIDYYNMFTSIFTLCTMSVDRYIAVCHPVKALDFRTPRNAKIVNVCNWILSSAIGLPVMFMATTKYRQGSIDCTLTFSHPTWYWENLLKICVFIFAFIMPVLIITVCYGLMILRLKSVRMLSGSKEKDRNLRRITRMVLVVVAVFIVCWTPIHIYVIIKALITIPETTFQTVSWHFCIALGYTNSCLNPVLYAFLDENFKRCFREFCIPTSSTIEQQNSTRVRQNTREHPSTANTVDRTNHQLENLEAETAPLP

Structure (SMILES) | IC50 (μ opioid receptors) | IC50 (δ opioid receptors) | Mean IC50 μ/δ Ratio (δ opioid receptors) | IC50 (μ opioid receptors; [1]) | IC50 (δ opioid receptors; [2])
Cc1cc(O)cc(C)c1C[C@H](NC(=O)OC(C)(C)C)C(=O)NC(C)(C)CNC(=O)[C@@H](N)Cc1ccccc1 [Example 11, acetic acid salt] | 1000 nM | 100 nM | 10 | – | –
Cc1cc(O)cc(C)c1C[C@H](NC(=O)OC(C)(C)C)C(=O)NCCNC(=O)[C@@H](N)Cc1ccccc1 [Example 23, 1,1-dimethylethyl[1S-[[[2-[[(2S-amino-l-oxo-3-phenylpropyl)amino]ethyl]amino]carbonyl]-2-(4-hydroxy-2,6-dimethylohenyl)ethyl]carbamate, acetate (salt)] | 1000 nM | 100 nM | 10 | – | –
Cc1cc(O)cc(C)c1C[C@H](N)C(=O)NC(C)(C)CNC(=O)[C@@H](N)Cc1ccccc1 [Example 12, αS-amino-N-[2-[2S-amino-3-(4-hydroxy-2,6-dimethylphenyl) -1-oxopropyl]amino]-2-methylpropyl]benzenepropanamide, dihydrochloride] | 3.4 nM | 31.4 nM | 0.1 | – | –
Cc1cc(O)cc(C)c1C[C@H](N)C(=O)NCC(C)(C)NC(=O)[C@H](Cc1ccccc1)NC(=O)OCc1ccccc1 [Example 26, Phenylmethyl[1S-[[[2-[[2S-amino-3-(4-hydroxy-2,6-dimethylphenyl)-1-oxopropyl]amino]-1,1-dimethylethyl1-amino]carbonyl]-2-phenylethyl]carbamate, monohydrochloride] | 19 nM | 29.8 nM | 0.6 | – | –
Cc1cc(O)cc(C)c1C[C@H](N)C(=O)NC(C)(C)CNC(=O)[C@H](Cc1ccccc1)NC(=O)C(F)(F)F [Example 14, αS-Amino-N-[1,1-dimethyl-2-[[1-oxo-3-phenyl-2S-[[trifluoroacetyl-amino]propyl]aminoethyl]-4-hydroxy-2,6-dimethylbenzenepropanamide, hydrochloride] | 0.54 nM | 0.64 nM | 0.8 | – | –
CC(=O)N[C@H](C(=O)NCC(C)(C)NC(=O)[C@@H](N)Cc1c(C)cc(O)cc1C)c1ccccc1 [Example 20, N-[2-[[2S-(acetylamino)-2-phenylacetyl]amino]-1,1-dimethylethyl]-αS-amino-4-hydroxy-2,6-dimethylbenzenepropanamide, hydrochloride] | 1.2 nM | 19.3 nM | 0.06 | – | –
Cc1cc(O)cc(C)c1C[C@H](N)C(=O)NC(C)(C)CNC(=O)[C@H](Cc1ccccc1)NC(=O)NCc1ccccc1 [Example 33, αS-amino-N-[1,1-dimethyl-2-[[1-oxo-3-phenyl-2S-[[[(phenylmethyl)amino]carbonyl]amino]propyl]-amino]ethyl]-4-hydroxy-2,6-dimethylbenzeneprooanamide, hydrochloride] | < 10 nM | ~2 nM | – | – | –
Cc1cc(O)cc(C)c1C[C@H](N)C(=O)NCCNC(=O)[C@H](Cc1ccccc1)NC(=O)OCc1ccccc1 [Example 22, Phenylmethyl[1S-[[(2-(8 [2S-amino-3-[4-hydroxy-2,6-dimethylphenyl) -1-oxopropyl]ethylaminocarbonyl-2-phenylethylcarbamate, monohydrochloride] | 2.6 nM | 3.1 nM | 0.8 | – | –
Cc1cc(O)cc(C)c1C[C@H](NC(=O)OC(C)(C)C)C(=O)NC(C)(C)CN [Example 4, 1,1-Dimethylethyl[1S-[[(2-amino-1,1-dimethylethyl)amino]carbonyl]-2-(4-hydroxy-2,6-dimethylphenyl)ethyl]carbamate] | – | – | 10 | 1000 nM | 100 nM
CC(=O)N[C@@H](Cc1ccccc1)C(=O)NCCNC(=O)[C@@H](N)Cc1c(C)cc(O)cc1C [Example 48, αS-(Acetylamino)-N-[(2-[[2S-amino-3-(4-hydroxy-2,6-dimethylphenyl)-1-oxopropyl]aminoethyl]benzenepropanamide, hydrochloride] | 0.3 nM | 2.9 nM | 0.1 | – | –
CC(=O)N[C@@H](Cc1ccccc1)C(=O)Nc1cccc(NC(=O)[C@@H](N)Cc2c(C)cc(O)cc2C)c1 [Example 57, αS-(Acetylamino)-N-[3[[[2S-amino-3-[4-hydroxy-2,6-dimethylphenyl]-1-oxopropylamino]phenyl]benzenepropanamide, hydrochloride] | – | 100 nM | – | – | –
C=CCNC(=O)N[C@@H](Cc1ccccc1)C(=O)NCC(C)(C)NC(=O)[C@@H](N)Cc1c(C)cc(O)cc1C [Example 28, αS-amino-N-[1,1-dimethyl-2-[1-oxo-3-phenyl-2S-[(2-propenylamino)carbonyl]amino]propyl]amino]ethyl]-4-hydroxy-2,6-dimethylbenzenepropanamide, monohydrochloride] | < 10 nM | ~2 nM | – | – | –
CC(=O)N[C@@H](Cc1ccccc1)C(=O)N1CCN(C(=O)[C@@H](N)Cc2c(C)cc(O)cc2C)CC1 [Example 54, N-[1S-[[4-[2-S-Amino-3-(4-hydroxy-2,6-dimethylphenyl)-1-oxopropyl]-1-piperazinyl]carbonyl]-2-phenylethyl]acetamide, monohydrochloride] | 3.3 nM | 88.8 nM | 0.04 | – | –
Cc1cc(O)c(C)c(C)c1C[C@@H](N)C(=O)NC(C)(C)CNC(=O)[C@H](Cc1ccccc1)NC(=O)OCc1ccccc1 [Example 31, Phenylmethyl[1S[[[2-[[2R-amino-3-(4-hydroxy-2,3,6-trimethylphenyl) -1-oxopropyl]amino]-2-methylpropyl]amino]carbonyl1-2-phenylethyl]carbamate, hydrochloride] | 100 nM | > 100 nM | – | – | –
CC(=O)N[C@@H](Cc1c(C)cccc1C)C(=O)NCCNC(=O)[C@@H](N)Cc1ccc(O)cc1 [Example 51, αS-(Acetylamino)-N-[2-[[2S-amino-3-(4-hydroxyphenyl)-1-oxopropyl]amino]ethyl]-2,6-dimethylbenzenepropanamide. hydrochloride] | – | > 50 nM | – | – | –
CC(=O)N[C@@H](Cc1ccccc1)C(=O)NC(C)(C)CNC(=O)[C@@H](N)Cc1c(C)cc(O)cc1C [Example 39, αS-(Acetylamino)-N-[2-[[2S-amino-3-(4-hydroxy-2,6-dimethylphenyl)-1-oxopropyl]amino]-1,1-dimethylethyl]-benzenepropanamide, monohydrochloride] | 4.7 nM | 7.8 nM | 0.6 | – | –
CC(=O)N[C@@H](Cc1ccccc1)C(=O)NCC(C)(C)NC(=O)[C@H](N)Cc1c(C)cc(O)c(C)c1C [Example 41, αS-(acetylamino)-N-[2-[[2R-amino-3-(4-hydroxy-2,3,6-trimethylphenyl) -1-oxopropyl]amino]-2-methylpropyl]benzenepropanamide, monohydrochloride] | 122 nM | 257 nM | 0.5 | – | –
Cc1cc(O)cc(C)c1C[C@H](N)C(=O)NCCNC(=O)[C@@H](N)Cc1ccccc1 [Example 24, αS-amino-N-[2-[[2S-amino-3-(4-hydroxy-2,6-dimethylphenyl) -1-oxopropyl]amino]ethyl]benzenepropanamide, dihydrochloride] | 3.7 nM | 562 nM | 0.01 | – | –
CCOC(=O)CNC(=O)N[C@@H](Cc1ccccc1)C(=O)NCC(C)(C)NC(=O)[C@@H](N)Cc1c(C)cc(O)cc1C [Example 35, hydrochloride] | – | – | – | < 10 nM | ~2 nM
CC(=O)N[C@@H](Cc1ccccc1)C(=O)N1CCC(NC(=O)[C@@H](N)Cc2c(C)cc(O)cc2C)C1 (stereo partly drawn) [Example 56, N-1-[2S-(Acetylamino)-1-oxo-3-phenylpropyl]-3-pyrrolidinyl]-αS-amino-4-hydroxy-2,6-dimethylbenzenepropanamide, monohydrochloride] | 85.5 nM | 50.3 nM | 1.7 | – | –
Cc1cc(O)c(C)c(C)c1C[C@H](N)C(=O)NC(C)(C)CNC(=O)[C@H](Cc1ccccc1)NC(=O)OCc1ccccc1 [Example 30, Phenylmethyl[1S[[[2-[[2S-amino-3-(4-hydroxy-2,3,6-trimethylphenyl)-1-oxopropyl]amino]-2-methylpropyl]amino]carbonyl]-2-phenylethyl]carbamate, hydrochloride] | < 10 nM | 100 nM | – | – | –
Cc1cc(O)cc(C)c1C[C@H](N)C(=O)N[C@H](C)CNC(=O)[C@H](Cc1ccccc1)NC(=O)OCc1ccccc1 [Example 46, Phenylmethyl[1S[[[2R-[[2S-amino-3-(4-hydroxy-2,6-dimethylphenyl) -1-oxopropyl]amino]propylamino]carbonyl]-2-phenylethyllcarbamate, hydrochloride] | 0.88 nM | 4.2 nM | 0.2 | – | –
Cc1cc(O)cc(C)c1C[C@H](N)C(=O)NC(C)(C)CNC(=O)[C@H](Cc1ccc(F)cc1)NC(=O)OCc1ccccc1 [Example 8, Phenylmethyl[1S-[[[2-[[2S-amino-3-(4-hydroxy-2,6-dimethylohenyl)-1-oxopropyllamino]-methylpropyl]amino]-carbonyl]-2-(4-fluorophenyl)ethyl]carbamate. monohydrochloride] | < 10 nM | 28 nM | – | – | –
Cc1cc(O)cc(C)c1C[C@H](N)C(=O)NC(C)(C)CNC(=O)[C@H](Cc1ccccc1)NC(=O)NS(=O)(=O)c1ccccc1 [Example 59, S-amino-N-[1,1-dimethyl-2-[[1-oxo-3-phenyl-2S-[[[(phenylsulfonyl)amino]carbonyl]amino]propyl]amino]ethyl]-4-hydroxy-2,6-dimethylbenzeneoropanamide, monohydrochloride] | 3.2 nM | 7.3 nM | 0.4 | – | –
CC(=O)N[C@@H](Cc1ccc(F)cc1)C(=O)NCC(C)(C)NC(=O)[C@@H](N)Cc1c(C)cc(O)cc1C [Example 6, αS-(Acetylamino)-N-2-[2S-amino-3-(4-hydroxy-2,6-dimethylphenyl) -1-oxopropyl]amino]-2-methyloropyl]-4-fluorobenzenepropanamide, monohydrochloride] | 1.1 nM | 1.8 nM | 0.6 | – | –
